Reference: patent US20250057862A1, “SIALIC ACID COMPOSITIONS FOR USE IN INHIBITING AND TREATING INFECTIONS IN FISH” (LifeScience AS, priority 2021, published 2025)
Entries after “also recorded” stand apart in the source; their conditions may differ.

Key:
[1] = Sialic acids in skin and intestinal mucus and plasma of salmon fed 1% Neu5Ac (bioavailability); type: in vivo, Atlantic salmon (Salmo salar)
Protocol: (§1) The example describes additional results obtained from feeding salmon a diet containing 1% Neu5Ac w/w. A feeding and morbidity experiment with Atlantic salmon (Salmo salar) was carried out at the Industrial Laboratory in Bergen (ILAB). The purpose of the trial was to investigate the effect of adding 1% Neu5Ac to feed on growth, certain fish health indicators, and the fish's resistance and welfare when infected with salmon lice and ILA virus, respectively. The trial included six main phases, the last two of which ran parallel with different infectious agents (FIG. 4).
Day 1-8: Acclimatization. Presmolt (approx. 40 g starting weight), freshwater phase. • Bulk weighing of all fish on day 1. • NB: All the fish received exclusively control feed during the acclimatization phase. • Day 8: First sampling. Day 9-41: Growth and preparation for smoltification, freshwater phase. • Different diets started (and continued) from day 9 onwards. • Light regime changed from 12:12 light/dark to 24 hours light on day 15. • Bulk weighing of fish on day 25. • Temperature increased from 12 to 14 degrees on day 28. • Smoltification starts in response to changed light regime and changed temperature. • Day 36: Second sampling. • Bulk weighing of fish on day 37. Day 42-50: Smoltification, transition and acclimatization to saltwater phase. • From 20 salt water from day 42, full salinity and presumed complete smoltification by day 44. • Day 50: Third sampling. • Day 51-78: Postsmolt, growth in seawater phase. • Growth on different diets, no other manipulations. • Day 78: Fourth sampling. […]
To separate life history effects from a general assessment of bioavailability, the samples from the longest continuous growth phase are first analyzed without experimental manipulations. […]

[2] = Example 2 mucosal health of gills and skin after sea lice challenge; type: in vivo, Atlantic salmon; settings: fifteen days following challenge with salmon lice; 2 of 3 tanks
Protocol: An experiment was conducted to determine the mucosal health status of gills, dorsal skin and foregut of Atlantic salmon smolt and postsmolt given sialic acid (NANA) treatment at a single dose (1% in feed) or a control treatment and challenged by sea lice exposure.
Atlantic salmon were reared in the flow-through system of the ILAB facility at 12 C and were reared in freshwater through smoltification to seawater in six tanks, 3 tanks per treatment. The gills and dorsal skin of the fish (n=30 per date, 5 from each replicate tank) were individually sampled on each of the following dates. The foregut of 30 fish was sampled once, while skin samples were not collected on the same date. The samples were processed (buffered formalin fixation, paraffin embedding, sectioned and stained with PAS-AB), digitally scanned and analyzed for mucous cell density (% epithelium filled with mucous cells, A), defense (mucous) cell sizes (mucous cell area, μm^2, D) and defense activity (barrier status, =(1/(A:D))×1000).
The fish were transferred to two large holding tanks and challenged with salmon lice and sampled 15 days later.

[3] = Growth and condition (weight, length, fitness factor) on 1% Neu5Ac feed; type: in vivo, Atlantic salmon (Salmo salar); settings: postsmolt, Day 78
Protocol: as §1
Day 1-8: Acclimatization. Presmolt (approx. 40 g starting weight), freshwater phase. • Bulk weighing of all fish on day 1. • NB: All the fish received exclusively control feed during the acclimatization phase. • Day 8: First sampling. Day 9-41: Growth and preparation for smoltification, freshwater phase. • Different diets started (and continued) from day 9 onwards. • Light regime changed from 12:12 light/dark to 24 hours light on day 15. • Bulk weighing of fish on day 25. • Temperature increased from 12 to 14 degrees on day 28. • Smoltification starts in response to changed light regime and changed temperature. • Day 36: Second sampling. • Bulk weighing of fish on day 37. Day 42-50: Smoltification, transition and acclimatization to saltwater phase. • From 20 salt water from day 42, full salinity and presumed complete smoltification by day 44. • Day 50: Third sampling. • Day 51-78: Postsmolt, growth in seawater phase. • Growth on different diets, no other manipulations. • Day 78: Fourth sampling. Day 79-94: Infection test—salmon lice • A proportion of the fish were taken out of all test vessels on day 79; anesthetized, marked, collected in a common large vessel and infected with salmon lice. • Bulk weighing of the fish taken out for the lice test. • The experimental fish were then distributed according to original diet group, in two new vessels, for further observation. • Day 94: […], lice test completed. […]

With `CC(=O)N[C@H]1[C@H]([C@H](O)[C@H](O)CO)OC(O)(C(=O)O)C[C@@H]1O` (stereo partly shown) [Neu5Ac, N-acetyl neuraminic acid] the “Bioavailability of free Neu5Ac in feed” value ([1]; 1% Neu5Ac in feed, salmon, listed as Free Neu5Ac) was “bioavailable; also recorded: biologically available”, the “Free Neu5Ac in the intestinal mucosa vs control diet” value ([1]; postsmolt, Day 78) was “highly significant” and the “Total Neu5Ac in the intestinal mucosa vs control diet (elevated level)” value ([1]; postsmolt, Day 78) was “weakly significant”. The “Gill mucous cell size after challenge” value [2] was “not significantly reduced”, the “% Increase in fitness (condition) factor vs control” value [3] was 19% and the “% Increase in length vs control” value [3] was 5%. The “% Increase in weight vs control” value [3] was 22%.
